System: SH-SY5Y cells
Assay: Autophagic flux with tandem reporter GFP-LC3-RFP-LC3Δ
Assay type: cell-based, human
Conditions: Aβ 1 µM, 24 h; compared to control cells; n = 6, N = 3
Experimental: SH-SY5Y cells were transfected with either GFP-LC3-LC3Δ-RFP or mCherry-GFP-LC3B tandem constructs (0.5 μg/well +1 µl transfection reagent − 24 well plate) with Lipofectamine 2000 (Life Technologies, 11668019) in OptiMEM (Life Technologies, 11058021) in DMEM/F-12, FCS^− PS^− media. After 8 h, FCS^− PS^− media was changed to normal culture media, respectively. Transfection efficiency was around 50–60% in all analyzed coverslips.
SH-SY5Y cells seeded on D1, were treated with Aβ variants (1 μM) on D3 in DMEM/F-12 media without serum and antibiotics. Control treatment included treatment with equal volume of 10 mM NaOH solution used for preparing the Aβ stock solutions, in respective cell culture medium. […]
All images were processed and analyzed using Fiji ImageJ software. […] Distance from the plaque core (Figure 1B) was measured using the concentric circles plugin module. Fluorescence intensity of the green channel (Figure S3A-B), and the number of neurons positive for Aβ signals (Figure S3-D) were quantified using the processing module of Keyence software. […] Intensity of green and red channel for a particular ROI was calculated and ratios of the individual values were computed (Figure 6B and S7A). For computing the number of mCherry^+GFP^± vesicles or per cell (Figure 6D and S7B), cell outline was drawn manually and number of vesicles per cell (nucleus count – DAPI) was calculated. […]

## non-phosphorylated amyloid-β [npAβ, reference compound]
  RFP:GFP ratio (autophagic flux): tended to increase

Reference: paper PMC10761119, “Phosphorylation-state dependent intraneuronal sorting of Aβ differentially impairs autophagy and the endo-lysosomal system” (Autophagy, 2023)
